Results reported in patent publication US8673947B2, “Enhanced migraine treatments based on ghrelin mimetics” (Helsinn Therapeutics (U.S.), Inc., priority 2009, dated 2014).
Where two headings read alike, the source gives them in different places.

Legend:
[1] = Pharmacokinetic two period crossover study of oral sumatriptan with or without anamorelin hydrochloride; format: in vivo; details: both sexes, human, plasma, 25 mg/dose
Protocol: The study was a two period crossover study in 22 healthy, normal men and women ages 18-45 years, conducted in open label format. […] Subjects were fasted overnight with a seven day wash out period between periods. […] All samples were analyzed using a validated bioanalytical method (LC-MS-MS).

[2] = Imitrex tablets, cited from earlier work

For `CNS(=O)(=O)Cc1ccc2[nH]cc(CCN(C)C)c2c1` [Sumatriptan, 1-[3-(2-dimethylaminoethyl)-1H-indol-5-yl]-N-methyl-methanesulfonamide], the AUC(0-t) ([1]; plasma sumatriptan, sumatriptan succinate 25 mg oral tablet, alone or with anamorelin HCl 100 mg oral, fasted healthy subjects, N = 22, read-out: AUC 0-30, Mean) was 2.53 ng·h/mL, the AUC(0-t) ([1]; plasma sumatriptan, sumatriptan succinate 25 mg oral tablet, alone or with anamorelin HCl 100 mg oral, fasted healthy subjects, N = 22, read-out: AUC 0-30, Median) was 2.56 ng·h/mL and the Cmax ([1]; plasma sumatriptan, sumatriptan succinate 25 mg oral tablet, alone or with anamorelin HCl 100 mg oral, fasted healthy subjects, N = 22, read-out: Cmax, Mean) was 20.3 ng/mL. For the same molecule, the Cmax ([1]; plasma sumatriptan, sumatriptan succinate 25 mg oral tablet, alone or with anamorelin HCl 100 mg oral, fasted healthy subjects, N = 22, read-out: Cmax, Median) was 20.4 ng/mL, the Tmax ([1]; plasma sumatriptan, sumatriptan succinate 25 mg oral tablet, alone or with anamorelin HCl 100 mg oral, fasted healthy subjects, N = 22, read-out: Tmax, Mean (converted)) was 1.12 h and the Tmax ([1]; plasma sumatriptan, sumatriptan succinate 25 mg oral tablet, alone or with anamorelin HCl 100 mg oral, fasted healthy subjects, N = 22, read-out: Tmax, Median (converted)) was 0.883 h. For the same molecule, the AUC(0-t) ([1]; read-out: AUC last, Mean) was 45.6 ng·h/mL, the “time after administration until maximum blood concentrations are reached” value ([2]; during a migraine attack) was 2.5 h and the “time after administration to reach maximum concentration in the plasma (average)” value ([2]; healthy adults) was 2.0 h.
